# Tested on: MV-4-11 cells
# Assay: Gene expression microarray analysis (Affymetrix PrimeView) and GSEA
# Type: cell-based, human
# Set-up: RFU PODN (11730768_x_at) / Fold change /veh PODN (11730768_x_at) / RFU LINC00158 (11744669_a_at) / Fold change /veh LINC00158 (11744669_a_at) / RFU DUSP10 (11751237_a_at) / Fold change /veh DUSP10 (11751237_a_at) / RFU ID3 (11757404_x_at) / Fold change /veh ID3 (11757404_x_at) / RFU PLEKHG5 (11737974_s_at) / Fold change /veh PLEKHG5 (11737974_s_at) / RFU LRRC4B (11730491_at) / Fold change /veh LRRC4B (11730491_at) / RFU GIMAP4 (11747438_a_at) / Fold change /veh GIMAP4 (11747438_a_at) / RFU KRT8 (11758183_x_at) / Fold change /veh KRT8 (11758183_x_at) / RFU CNN1 (11734310_a_at) / Fold change /veh CNN1 (11734310_a_at) / RFU VPS37D (11726825_at) / Fold change /veh VPS37D (11726825_at) / RFU C10orf10 (11716522_x_at) / Fold change /veh C10orf10 (11716522_x_at) / RFU KIR2DL2 /// KIR2DL4 /// KIR2DL5A /// KIR2DL5B /// KIR2DS1 /// KIR2DS2 /// KIR2DS3 /// KIR2DS4 /// KIR3DL3 /// KIR3DL3 /// KIR3DS1 (11738374_at) / Fold change /veh KIR2DL2 /// KIR2DL4 /// KIR2DL5A /// KIR2DL5B /// KIR2DS1 /// KIR2DS2 /// KIR2DS3 /// KIR2DS4 /// KIR3DL3 /// KIR3DL3 /// KIR3DS1 (11738374_at) / RFU C1QL1 (11718748_at) / Fold change /veh C1QL1 (11718748_at) / RFU TMPRSS4 (11747572_a_at) / Fold change /veh TMPRSS4 (11747572_a_at) / RFU HAMP (11756126_x_at) / Fold change /veh HAMP (11756126_x_at) / RFU RNFT2 (11725882_a_at) / Fold change /veh RNFT2 (11725882_a_at) / RFU NR4A2 (11747474_a_at) / Fold change /veh NR4A2 (11747474_a_at) / RFU ABCC12 (11746883_a_at) / Fold change /veh ABCC12 (11746883_a_at) / RFU TMEM136 (11760407_x_at) / Fold change /veh TMEM136 (11760407_x_at) / RFU CLDN22 /// WWC2 (11732394_at) / Fold change /veh CLDN22 /// WWC2 (11732394_at) / RFU HLA-DPB1 (11760878_x_at) / Fold change /veh HLA-DPB1 (11760878_x_at) / RFU SPINT1 (11716480_a_at) / Fold change /veh SPINT1 (11716480_a_at) / RFU GAP43 (11754022_s_at) / Fold change /veh GAP43 (11754022_s_at) / RFU A4GNT (11735810_at) / Fold change /veh A4GNT (11735810_at) / RFU PRB3 (11715151_x_at) / Fold change /veh PRB3 (11715151_x_at) / RFU TUBB4B (11761932_at) / Fold change /veh TUBB4B (11761932_at) / RFU CAPN14 (11732068_a_at) / Fold change /veh CAPN14 (11732068_a_at) / RFU TMCC2 (11721928_a_at) / Fold change /veh TMCC2 (11721928_a_at) / RFU IRGQ (11745062_a_at) / Fold change /veh IRGQ (11745062_a_at) / RFU FAM174B (11720279_a_at) / Fold change /veh FAM174B (11720279_a_at) / RFU TMPRSS4 (11748680_a_at) / Fold change /veh TMPRSS4 (11748680_a_at) / RFU FAM212B (11763350_a_at) / Fold change /veh FAM212B (11763350_a_at) / RFU PLEKHG5 (11743358_a_at) / Fold change /veh PLEKHG5 (11743358_a_at) / RFU ZSCAN30 (11745921_a_at) / Fold change /veh ZSCAN30 (11745921_a_at) / RFU CMKLR1 (11741424_a_at) / Fold change /veh CMKLR1 (11741424_a_at) / RFU LOC101060620 /// MAPK8IP1 (11723275_at) / Fold change /veh LOC101060620 /// MAPK8IP1 (11723275_at) / RFU SPTSSB (11747773_x_at) / Fold change /veh SPTSSB (11747773_x_at) / RFU PRSS12 (11739890_at) / Fold change /veh PRSS12 (11739890_at) / RFU BIN1 (11741810_x_at) / Fold change /veh BIN1 (11741810_x_at) / RFU WNT11 (11732464_a_at) / Fold change /veh WNT11 (11732464_a_at) / RFU C10orf10 (11716521_a_at) / Fold change /veh C10orf10 (11716521_a_at) / RFU C5orf56 (11738089_at) / Fold change /veh C5orf56 (11738089_at) / RFU CYB561 (11721691_x_at) / Fold change /veh CYB561 (11721691_x_at) / RFU ANKRD19P (11752326_a_at) / Fold change /veh ANKRD19P (11752326_a_at) / RFU OR2T12 /// OR2T33 /// OR2T8 (11738714_s_at) / Fold change /veh OR2T12 /// OR2T33 /// OR2T8 (11738714_s_at) / RFU VCAN (11748164_a_at) / Fold change /veh VCAN (11748164_a_at) / RFU JSRP1 (11732532_at) / Fold change /veh JSRP1 (11732532_at) / RFU KRTAP10-11 (11738290_x_at) / Fold change /veh KRTAP10-11 (11738290_x_at) / RFU MYO3A (11730013_a_at) / Fold change /veh MYO3A (11730013_a_at) / RFU EBF3 (11725865_a_at) / Fold change /veh EBF3 (11725865_a_at) / RFU CAMK2N1 (11719241_x_at) / Fold change /veh CAMK2N1 (11719241_x_at) / RFU C5orf56 (11738088_a_at) / Fold change /veh C5orf56 (11738088_a_at) / RFU OLFML3 (11715873_a_at) / Fold change /veh OLFML3 (11715873_a_at) / RFU LOC100653217 /// NTM (11731650_a_at) / Fold change /veh LOC100653217 /// NTM (11731650_a_at) / RFU MAPK11 (11762145_a_at) / Fold change /veh MAPK11 (11762145_a_at) / RFU FIZ1 (11724087_x_at) / Fold change /veh FIZ1 (11724087_x_at) / RFU OASL (11726364_x_at) / Fold change /veh OASL (11726364_x_at) / RFU SOX15 (11748057_x_at) / Fold change /veh SOX15 (11748057_x_at) / RFU CD79A (11719716_a_at) / Fold change /veh CD79A (11719716_a_at) / RFU HIST1H1D (11736915_at) / Fold change /veh HIST1H1D (11736915_at) / RFU CASKIN2 (11723855_a_at) / Fold change /veh CASKIN2 (11723855_a_at) / RFU LOC730098 (11760151_x_at) / Fold change /veh LOC730098 (11760151_x_at) / RFU OR4N2 (11742367_at) / Fold change /veh OR4N2 (11742367_at) / RFU PRRT2 (11749266_a_at) / Fold change /veh PRRT2 (11749266_a_at) / RFU SNX32 (11753110_a_at) / Fold change /veh SNX32 (11753110_a_at) / RFU CDHR5 (11726645_a_at) / Fold change /veh CDHR5 (11726645_a_at) / RFU RCAN1 (11760418_a_at) / Fold change /veh RCAN1 (11760418_a_at) / RFU FAM167A (11723789_a_at) / Fold change /veh FAM167A (11723789_a_at) / RFU FAM26E (11764081_at) / Fold change /veh FAM26E (11764081_at) / RFU ISYNA1 (11749810_s_at) / Fold change /veh ISYNA1 (11749810_s_at) / RFU ACY1 (11761880_at) / Fold change /veh ACY1 (11761880_at) / RFU 11764098_at / Fold change /veh 11764098_at / RFU SAMD14 (11745864_x_at) / Fold change /veh SAMD14 (11745864_x_at) / RFU NPB (11741838_a_at) / Fold change /veh NPB (11741838_a_at) / RFU TMPRSS6 (11731388_a_at) / Fold change /veh TMPRSS6 (11731388_a_at) / RFU KRTAP10-2 (11738614_at) / Fold change /veh KRTAP10-2 (11738614_at) / RFU ARHGAP8 /// PRR5-ARHGAP8 (11727945_x_at) / Fold change /veh ARHGAP8 /// PRR5-ARHGAP8 (11727945_x_at) / RFU KRTAP5-7 /// NADSYN1 (11734609_at) / Fold change /veh KRTAP5-7 /// NADSYN1 (11734609_at) / RFU RASL12 (11751679_a_at) / Fold change /veh RASL12 (11751679_a_at) / RFU CDKN2B (11736163_a_at) / Fold change /veh CDKN2B (11736163_a_at) / RFU PRF1 (11729649_at) / Fold change /veh PRF1 (11729649_at) / RFU, ZNF638 /// ZNF638-IT1 / Fold change vs veh, ZNF638 /// ZNF638-IT1 / RFU, PANK3 / Fold change vs veh, PANK3 / RFU, SH3YL1 / Fold change vs veh, SH3YL1 / RFU, ZEB2 / Fold change vs veh, ZEB2 / RFU, NRIP1 / Fold change vs veh, NRIP1 / RFU, PTTG1IP / Fold change vs veh, PTTG1IP / RFU, CAPN2 / Fold change vs veh, CAPN2 / RFU, MED14 / Fold change vs veh, MED14 / RFU, SNORA58 / Fold change vs veh, SNORA58 / RFU, C1orf63 / Fold change vs veh, C1orf63 / RFU, LRRFIP1 / Fold change vs veh, LRRFIP1 / RFU, NDUFAF7 / Fold change vs veh, NDUFAF7 / RFU, SLC12A2 / Fold change vs veh, SLC12A2 / RFU, IBTK / Fold change vs veh, IBTK / RFU, ESF1 / Fold change vs veh, ESF1 / Fold change vs veh, TMEM50B / RFU, TAOK1 / Fold change vs veh, TAOK1 / RFU, ACBD3 / Fold change vs veh, ACBD3 / RFU, TMA16 / Fold change vs veh, TMA16 / RFU, RWDD3 / Fold change vs veh, RWDD3 / RFU, BCAT1 / Fold change vs veh, BCAT1 / RFU, EDEM3 / Fold change vs veh, EDEM3 / RFU, TMEM33 / Fold change vs veh, TMEM33 / RFU, WDR75 / Fold change vs veh, WDR75 / RFU, AHCTF1 / Fold change vs veh, AHCTF1 / RFU, TFRC / Fold change vs veh, TFRC / RFU, ZDHHC17 / Fold change vs veh, ZDHHC17 / RFU, NOM1 / Fold change vs veh, NOM1 / RFU, ARL8B / Fold change vs veh, ARL8B / RFU, ZBTB11 / Fold change vs veh, ZBTB11 / RFU, TAMM41 / Fold change vs veh, TAMM41 / RFU, KIAA1704 /// LOC100996395 / Fold change vs veh, KIAA1704 /// LOC100996395 / RFU, ING1 / Fold change vs veh, ING1 / RFU, TRMT61B / Fold change vs veh, TRMT61B / RFU, FUBP3 / Fold change vs veh, FUBP3 / RFU, TP53 / Fold change vs veh, TP53 / RFU, TNKS2 / Fold change vs veh, TNKS2 / RFU, ZFP14 / Fold change vs veh, ZFP14 / RFU, ACTR2 / Fold change vs veh, ACTR2 / RFU, PPP3R1 / Fold change vs veh, PPP3R1 / RFU, PIK3R1 / Fold change vs veh, PIK3R1 / RFU, HNRNPA1 / Fold change vs veh, HNRNPA1 / RFU, RNF170 / Fold change vs veh, RNF170 / RFU, ZNF28 / Fold change vs veh, ZNF28 / RFU, RNGTT / Fold change vs veh, RNGTT / RFU, OGT / Fold change vs veh, OGT / RFU, BRD1 / Fold change vs veh, BRD1 / RFU, MARS / Fold change vs veh, MARS / RFU, ZNF655 / Fold change vs veh, ZNF655 / RFU, FAHD1 / Fold change vs veh, FAHD1 / RFU, BDP1 / Fold change vs veh, BDP1 / RFU, LRRCC1 / Fold change vs veh, LRRCC1 / RFU, ARID1A / Fold change vs veh, ARID1A / RFU, ZNF146 / Fold change vs veh, ZNF146 / RFU, ZNF330 / Fold change vs veh, ZNF330 / RFU, GPN3 / Fold change vs veh, GPN3 / RFU, C9orf123 / Fold change vs veh, C9orf123 / RFU, N4BP2L2 / Fold change vs veh, N4BP2L2 / RFU, ARFIP1 / Fold change vs veh, ARFIP1 / RFU, FAM179B / Fold change vs veh, FAM179B / RFU, BCL10 / Fold change vs veh, BCL10 / RFU, UHRF1BP1L / Fold change vs veh, UHRF1BP1L / RFU, BET1 / Fold change vs veh, BET1 / RFU, CNOT2 / Fold change vs veh, CNOT2 / RFU, ZNF268 / Fold change vs veh, ZNF268 / Fold change vs veh, ZNF507 / RFU, DGCR2 / Fold change vs veh, DGCR2 / RFU, WDSUB1 / Fold change vs veh, WDSUB1 / Fold change vs veh, HSP90B1 /// MIR3652 / RFU, ADSS / Fold change vs veh, ADSS / RFU, GK / Fold change vs veh, GK / RFU, ZNF148 / Fold change vs veh, ZNF148 / RFU, TAF9 / Fold change vs veh, TAF9 / RFU, SLC1A5 / Fold change vs veh, SLC1A5 / RFU, SLMO2 / Fold change vs veh, SLMO2 / RFU, ABCC4 / Fold change vs veh, ABCC4 / RFU, LOC101060439 /// RAP1B / Fold change vs veh, LOC101060439 /// RAP1B / RFU, RFX7 / Fold change vs veh, RFX7 / RFU, GTPBP10 / Fold change vs veh, GTPBP10 / RFU, CNEP1R1 / Fold change vs veh, CNEP1R1 / RFU, BIVM-ERCC5 /// ERCC5 / Fold change vs veh, BIVM-ERCC5 /// ERCC5 / RFU, ILF3 / Fold change vs veh, ILF3 / RFU 11762660_at / Fold change /veh 11762660_at / RFU VCAN (11757783_s_at) / Fold change /veh VCAN (11757783_s_at) / RFU DDX43 (11728927_at) / Fold change /veh DDX43 (11728927_at) / RFU KRT8 (11758188_x_at) / Fold change /veh KRT8 (11758188_x_at) / RFU NKD1 (11759106_at) / Fold change /veh NKD1 (11759106_at) / RFU SRD5A1 (11742802_a_at) / Fold change /veh SRD5A1 (11742802_a_at) / RFU TPSAB1 /// TPSB2 (11721975_s_at) / Fold change /veh TPSAB1 /// TPSB2 (11721975_s_at) / RFU GSTM3 (11746129_a_at) / Fold change /veh GSTM3 (11746129_a_at) / RFU IL23R (11737362_x_at) / Fold change /veh IL23R (11737362_x_at) / RFU TMEM51 (11727254_a_at) / Fold change /veh TMEM51 (11727254_a_at) / RFU PIWIL2 (11732686_x_at) / Fold change /veh PIWIL2 (11732686_x_at) / RFU ORM1 (11744905_x_at) / Fold change /veh ORM1 (11744905_x_at) / RFU CCDC152 (11743942_at) / Fold change /veh CCDC152 (11743942_at) / RFU ECM1 (11717891_a_at) / Fold change /veh ECM1 (11717891_a_at) / RFU IL23R (11748794_a_at) / Fold change /veh IL23R (11748794_a_at) / RFU TNFAIP8L3 (11732012_x_at) / Fold change /veh TNFAIP8L3 (11732012_x_at) / RFU MBOAT4 (11741988_at) / Fold change /veh MBOAT4 (11741988_at) / RFU 11764193_at / Fold change /veh 11764193_at / RFU TMEM53 (11763286_at) / Fold change /veh TMEM53 (11763286_at) / RFU MAGEB2 (11727129_at) / Fold change /veh MAGEB2 (11727129_at) / RFU TMEM200A (11744735_a_at) / Fold change /veh TMEM200A (11744735_a_at) / RFU CCDC152 (11751479_a_at) / Fold change /veh CCDC152 (11751479_a_at) / RFU FAM211A (11726209_a_at) / Fold change /veh FAM211A (11726209_a_at) / RFU RGS16 (11746705_a_at) / Fold change /veh RGS16 (11746705_a_at) / RFU VCAN (11755009_s_at) / Fold change /veh VCAN (11755009_s_at) / RFU RHOB (11743442_s_at) / Fold change /veh RHOB (11743442_s_at) / RFU RGS16 (11720943_a_at) / Fold change /veh RGS16 (11720943_a_at) / RFU RGS16 (11720944_at) / Fold change /veh RGS16 (11720944_at) / RFU, VPS4B / Fold change vs veh, VPS4B / RFU, CREB1 / Fold change vs veh, CREB1 / RFU, DNAJC13 / Fold change vs veh, DNAJC13 / RFU, GNAQ / Fold change vs veh, GNAQ / RFU, CDK5R1 / Fold change vs veh, CDK5R1 / RFU, ZRANB3 / Fold change vs veh, ZRANB3 / RFU, CUL4A / Fold change vs veh, CUL4A / RFU, CCNY / Fold change vs veh, CCNY / RFU, UFL1 / Fold change vs veh, UFL1 / RFU, COG3 / Fold change vs veh, COG3 / RFU, DIAPH2 / Fold change vs veh, DIAPH2 / RFU, SKA2 / Fold change vs veh, SKA2 / RFU, AFF3 / Fold change vs veh, AFF3 / RFU, LMF1 / Fold change vs veh, LMF1 / RFU, IPO11 / Fold change vs veh, IPO11 / RFU, DFFB / Fold change vs veh, DFFB / RFU, FOXP1 / Fold change vs veh, FOXP1 / RFU, CARD8 / Fold change vs veh, CARD8 / RFU, STRN3 / Fold change vs veh, STRN3 / RFU, ADK / Fold change vs veh, ADK / RFU, RASSF2 / Fold change vs veh, RASSF2 / RFU, WIPF1 / Fold change vs veh, WIPF1 / RFU, LARP1B / Fold change vs veh, LARP1B / RFU, RASA1 / Fold change vs veh, RASA1 / RFU, RB1 / Fold change vs veh, RB1 / RFU, PPFIA1 / Fold change vs veh, PPFIA1 / RFU, MAT2A / Fold change vs veh, MAT2A / RFU, CCT5 / Fold change vs veh, CCT5 / RFU, WDR92 / Fold change vs veh, WDR92 / RFU, CUX1 / Fold change vs veh, CUX1 / RFU, TTC7A / Fold change vs veh, TTC7A / RFU, TMEM135 / Fold change vs veh, TMEM135 / RFU, DEPTOR / Fold change vs veh, DEPTOR / RFU, CPM / Fold change vs veh, CPM / RFU, DNAJB6 / Fold change vs veh, DNAJB6 / RFU, CACNA2D3 / Fold change vs veh, CACNA2D3 / RFU, DTX4 / Fold change vs veh, DTX4 / RFU, TFCP2 / Fold change vs veh, TFCP2 / RFU, GMCL1 /// GMCL1P1 / Fold change vs veh, GMCL1 /// GMCL1P1 / RFU, AEBP2 / Fold change vs veh, AEBP2 / RFU, SNHG1 /// SNORD22 /// SNORD25 /// SNORD26 /// SNORD27 /// SNORD28 /// SNORD29 /// SNORD31 / Fold change vs veh, SNHG1 /// SNORD22 /// SNORD25 /// SNORD26 /// SNORD27 /// SNORD28 /// SNORD29 /// SNORD31 / Fold change (Aza/veh), C12orf56 (ProbeSet 11735607_a_at) / Fold change (ACY-1035/veh), C12orf56 (ProbeSet 11735607_a_at) / Fold change (Aza/veh), FGFR1OP (ProbeSet 11751329_s_at) / Fold change (ACY-1035/veh), FGFR1OP (ProbeSet 11751329_s_at) / Fold change (Aza/veh), VPS36 (ProbeSet 11739960_a_at) / Fold change (ACY-1035/veh), VPS36 (ProbeSet 11739960_a_at) / RFU SYPL1 (11715823_x_at) / Fold change /veh SYPL1 (11715823_x_at) / RFU IGFBP7 (11715501_s_at) / Fold change /veh IGFBP7 (11715501_s_at) / RFU REEP3 (11722064_at) / Fold change /veh REEP3 (11722064_at) / RFU IGLL1 (11728026_x_at) / Fold change /veh IGLL1 (11728026_x_at): dose or concentration left out as unconfirmed
# Settings: ProbeSet 11757113_a_at; LIST D
compound,measurement,value
Nc1ccc(-c2cccs2)cc1NC(=O)c1ccc2c(c1)cc(C1CC1)n2CCN1CCOCC1 [ACY-1035],"Fold change vs veh, SNHG1 /// SNORD22 /// SNORD25 /// SNORD26 /// SNORD27 /// SNORD28 /// SNORD29 /// SNORD31",0.87

# Source: article PMC5218480 (PLoS ONE, 2017)
